Experimental findings from US9605026B2, “Hydrogen-bond surrogate peptides and peptidomimetics for p53 reactivation” (New York University, priority 2013, dated 2017) are described below.

The assay relates to UMSCC47 cells. Put plainly: Tumorsphere formation of UMSCC47 cells. It is filed as cell-based, human. The following applies: UMSCC47, 10 μM, 7 days, vs vehicle. The protocol:
FIG. 6A is a western blot showing total and acetylated p53 levels. UMSCC47 cells were treated with control (vehicle), CH1iB (10 μM), cis-platinum (10 μM), or CH1iB (10 μM) and cis-platinum (10 μM) for 24 hours. Cell lysates were immunoblotted with anti-p53 or anti-acetylated[K382]-p53 antibody. FIG. 6B is a graph of p53 transcriptional activity. UMSCC47 cells were co-transfected with a p53 Firefly luciferase reporter plasmid and a control Renilla luciferase plasmid. After 24 hours, cells were treated with control (vehicle), CH1iB (10 μM), cis-platinum (10 μM), or CH1iB (10 μM) and cis-platinum (10 μM) for 24 hours. Firefly luciferase activity was normalized to Renilla luciferase activity to control for transfection efficiency. […] UMSCC47 cells were treated with control (vehicle), CH1iB (10 μM), cis-platinum (10 μM), or CH1iB (10 μM) and cis-platinum (10 μM) for 24 hours. mRNA expression was determined using qPCR with validated TaqMan assays. […] FACS was used to quantitate Annexin V-positive apoptotic cells (left panel). […] Tumorsphere formation efficiency was calculated as the number of tumorspheres (≧50 μm in diameter) formed in 7 days divided by the original number of cells seeded. Tumorsphere diameter was measured using NIS-Elements software. […]

Turning to “XELA*RALDQ-NH2 (ELXRALDQ; HBS: 4-pentenoic acid, N-allylalanine; C-terminal amide; CH1iB) [X 4-pentenoic acid, A* N-allylalanine]”, the “reduction of tumorsphere formation” value was 20%.
